One assay concerns STAT5. The experiment in a line: Immunoblotting (Western blot) analysis of STAT5 degradation efficiency of degraders in treated cells. Type of assay: cell-based. In a few lines: (§1)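 Read-out: fluorescent IRDye 680RD/800CW secondaries imaged on an infrared scanner, with band intensities quantified by densitometry and GAPDH serving as loading control. Samples were RIPA lysates, BCA-normalised, from ~1 million treated cells.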

The next assay concerns the target T1, STAT6 (Homo sapiens, UniProt P42226).
T1 construct: endogenous in cells; host or cells: MOLM-16, KU-812, SKNO1, MB231, L1236
T1 sequence (P42226 1-847): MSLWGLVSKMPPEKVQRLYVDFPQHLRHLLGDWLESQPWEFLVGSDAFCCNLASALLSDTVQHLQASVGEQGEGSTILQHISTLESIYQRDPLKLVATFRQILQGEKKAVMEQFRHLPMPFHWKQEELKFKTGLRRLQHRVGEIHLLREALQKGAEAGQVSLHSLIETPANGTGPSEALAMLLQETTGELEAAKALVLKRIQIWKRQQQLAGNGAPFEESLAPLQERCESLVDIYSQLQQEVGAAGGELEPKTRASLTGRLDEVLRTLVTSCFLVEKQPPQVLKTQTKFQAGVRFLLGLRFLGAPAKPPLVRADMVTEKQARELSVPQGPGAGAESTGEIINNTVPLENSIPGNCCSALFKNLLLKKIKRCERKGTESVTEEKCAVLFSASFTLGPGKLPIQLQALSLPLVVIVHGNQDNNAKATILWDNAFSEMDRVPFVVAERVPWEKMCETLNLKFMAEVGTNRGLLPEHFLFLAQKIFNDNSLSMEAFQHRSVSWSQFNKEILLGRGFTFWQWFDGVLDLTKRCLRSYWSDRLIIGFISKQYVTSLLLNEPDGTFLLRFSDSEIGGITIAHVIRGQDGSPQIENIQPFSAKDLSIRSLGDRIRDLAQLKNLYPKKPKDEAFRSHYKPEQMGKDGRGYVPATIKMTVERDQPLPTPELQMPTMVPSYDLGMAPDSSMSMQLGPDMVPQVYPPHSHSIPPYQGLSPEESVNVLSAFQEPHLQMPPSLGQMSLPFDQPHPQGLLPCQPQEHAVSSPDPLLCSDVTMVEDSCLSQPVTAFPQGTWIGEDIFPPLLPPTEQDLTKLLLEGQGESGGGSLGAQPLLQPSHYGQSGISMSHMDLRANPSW
The assay can be described thus: Immunoblotting (Western blot) analysis of STAT6 degradation efficiency of degraders in treated cells. Type of assay: cell-based. A digest of the protocol: as §1

Setting [1] is: MOLM-16 cells, numeric bound, read-out: DC50 S5 MOLM-16.
The mark [2] stands for this setting: MOLM-16 cells, numeric bound, read-out: DC50 S6 MOLM-16.
Setting [3] is: KU-812 cells, read-out: DC50 S5 KU-812.
[4] abbreviates: MOLM-16 cells, class symbols, read-out: DC50 S5 MOLM-16.
Where [5] appears, read: SKNO1 cells, read-out: DC50 S5 SKNO1.
The mark [6] stands for this setting: KU-812 cells, read-out: DC50 S6 KU-812.
Where [7] appears, read: MOLM-16 cells, class symbols, read-out: DC50 S6 MOLM-16.

Read-outs that look alike come from different tables or passages of the source.

What is called DC50 is the midpoint of the concentration-degradation curve. For `CC(C)(C)[C@H](NC(=O)c1cc2cc(C(F)(F)P(=O)(O)O)ccc2s1)C(=O)N1CCC[C@H]1C(=O)N1C[C@@H](Oc2ccc3ccccc3c2)C[C@H]1C(=O)NCCCC#Cc1cccc2c1CN(C1CCC(=O)NC1=O)C2=O` (stereo partly drawn) [Compound 659, ((2-(((2S)-1-((2S)-2-((2S,4S)-2-((5-(2-(2,6-dioxopiperidin-3-yl)-1-oxoisoindolin-4-yl)pent-4-yn-1-yl)carbamoyl)-4-(naphthalen-2-yloxy)pyrrolidine-1-carbonyl)pyrrolidin-1-yl)-3,3-dimethyl-1-oxobutan-2-yl)carbamoyl)benzo[b]thiophen-5-yl)difluoromethyl)phosphonic acid], the half-maximal degradation concentration (DC50) with STAT5 (setting [1]) and at STAT6 (setting [2]) was above 300 nM each time.
As for `CN(CCCC#Cc1cccc2c1CN(C1CCC(=O)NC1=O)C2=O)C(=O)CCN(C(=O)[C@@H]1CCCN1C(=O)[C@@H](NC(=O)c1cc2cc(C(F)(F)P(=O)(O)O)ccc2s1)C(C)(C)C)c1ccc(-c2nccs2)cc1` (stereo partly drawn) [Compound 681, ((2-(((2S)-1-((2S)-2-((3-((5-(2-(2,6-Dioxopiperidin-3-yl)-1-oxoisoindolin-4-yl)pent-4-yn-1-yl)(methyl)amino)-3-oxopropyl)(4-(thiazol-2-yl)phenyl)carbamoyl)pyrrolidin-1-yl)-3,3-dimethyl-1-oxobutan-2-yl)carbamoyl)benzo[b]thiophen-5-yl)difluoromethyl)phosphonic acid], the half-maximal degradation concentration (DC50) is 100 to 1000 nM in the assay with STAT5 (setting [3]); below 100 nM with STAT5 (setting [4]); 100 to 1000 nM with STAT5 (setting [5]); above 10000 nM at STAT6 (setting [6]); above 10000 nM on STAT6 (setting [7]); above 10000 nM on STAT6 (SKNO1 cells, read-out: DC50 S6 SKNO1).
Consider `CN(CCCC#Cc1cccc2c1CN(C1CCC(=O)NC1=O)C2=O)C(=O)CCN(C(=O)[C@@H]1CCCN1C(=O)[C@@H](NC(=O)c1cc2cc(C(F)(F)P(=O)(O)OCOC(=O)C(C)(C)C)ccc2s1)C(C)(C)C)c1ccc2occc2c1` (stereo partly drawn) [Compound 672, ((((2-(((2S)-1-((2S)-2-(benzofuran-5-yl(3-((5-(2-(2,6-dioxopiperidin-3-yl)-1-oxoisoindolin-4-yl)pent-4-yn-1-yl)(methyl)amino)-3-oxopropyl)carbamoyl)pyrrolidin-1-yl)-3,3-dimethyl-1-oxobutan-2-yl)carbamoyl)benzo[b]thiophen-5-yl)difluoromethyl)(hydroxy)phosphoryl)oxy)methyl pivalate], for which the values for the 50% degradation concentration (DC50) in the assay with STAT5 (setting [4]) and at STAT6 (setting [2]) were below 100 nM and above 300 nM, respectively.
Consider `CC(C)(C)[C@H](NC(=O)c1cc2cc(C(F)(F)P(=O)(O)O)ccc2s1)C(=O)N1CCC[C@H]1C(=O)N(CCC(=O)NCCCCC#Cc1cccc2c1CN(C1CCC(=O)NC1=O)C2=O)c1ccc(Br)cc1` (stereo partly drawn) [Compound 686, ((2-(((2S)-1-((2S)-2-((4-bromophenyl)(3-((6-(2-(2,6-dioxopiperidin-3-yl)-1-oxoisoindolin-4-yl)hex-5-yn-1-yl)amino)-3-oxopropyl)carbamoyl)pyrrolidin-1-yl)-3,3-dimethyl-1-oxobutan-2-yl)carbamoyl)benzo[b]thiophen-5-yl)difluoromethyl)phosphonic acid], for which the DC50 in the assay with STAT5 (setting [3]) is 100 to 1000 nM; on STAT6 (setting [6]) it was above 10000 nM.
Regarding `CC(C)(C)[C@H](NC(=O)c1cc2cc(C(F)(F)P(=O)(O)O)ccc2s1)C(=O)N1CCC[C@H]1C(=O)N(CCC(=O)NCCCC#Cc1cccc2c1CN(C1CCC(=O)NC1=O)C2=O)c1ccc2scnc2c1` (stereo partly drawn) [Compound 668, ((2-(((2S)-1-((2S)-2-(benzo[d]thiazol-5-yl(3-((5-(2-(2,6-dioxopiperidin-3-yl)-1-oxoisoindolin-4-yl)pent-4-yn-1-yl)amino)-3-oxopropyl)carbamoyl)pyrrolidin-1-yl)-3,3-dimethyl-1-oxobutan-2-yl)carbamoyl)benzo[b]thiophen-5-yl)difluoromethyl)phosphonic acid], the DC50 in the assay with STAT5 (setting [3]) was 100 to 1000 nM; in the assay on STAT5 (setting [4]), below 100 nM; with STAT5 (setting [5]), 100 to 1000 nM; at STAT6 (setting [2]), above 300 nM.
For the compound `CC(C)(C)[C@H](NC(=O)c1cc2cc(C(F)(F)P(=O)(O)O)ccc2s1)C(=O)N1C[C@H](OCCCCCCC#Cc2cccc3c2CN(C2CCC(=O)NC2=O)C3=O)C[C@H]1C(=O)Nc1ncc(-c2ccccc2)s1` (stereo partly drawn) [Compound 606, ((2-(((2S)-1-((2S,4R)-4-((8-(2-(2,6-dioxopiperidin-3-yl)-1-oxoisoindolin-4-yl)oct-7-yn-1-yl)oxy)-2-((5-phenylthiazol-2-yl)carbamoyl)pyrrolidin-1-yl)-3,3-dimethyl-1-oxobutan-2-yl)carbamoyl)benzo[b]thiophen-5-yl)difluoromethyl)phosphonic acid], the DC50 in the assay with STAT5 (setting [1]) and on STAT6 (setting [2]) was above 300 nM throughout.
Consider `CC(C)(C)C(=O)OCOP(=O)(O)C(F)(F)c1ccc2sc(C(=O)N[C@H](C(=O)N3CCC[C@H]3C(=O)N(CCC(=O)NCCCC#Cc3cccc4c3CN(C3CCC(=O)NC3=O)C4=O)c3ccc(Br)cc3)C(C)(C)C)cc2c1` (stereo partly drawn) [Compound 653, ((((2-(((2S)-1-((2S)-2-((4-bromophenyl)(3-((5-(2-(2,6-dioxopiperidin-3-yl)-1-oxoisoindolin-4-yl)pent-4-yn-1-yl)amino)-3-oxopropyl)carbamoyl)pyrrolidin-1-yl)-3,3-dimethyl-1-oxobutan-2-yl)carbamoyl)benzo[b]thiophen-5-yl)difluoromethyl)(hydroxy)phosphoryl)oxy)methyl pivalate], for which the DC50 is above 300 nM with STAT5 (setting [1]) and below 100 nM on STAT6 (setting [7]).
Consider `CN(CCCC#Cc1cccc2c1CN(C1CCC(=O)NC1=O)C2=O)C(=O)CCN(C(=O)[C@@H]1CCCN1C(=O)[C@@H](NC(=O)c1cc2cc(C(F)(F)P(=O)(O)O)ccc2s1)C(C)(C)C)c1ccc2ccccc2c1` (stereo partly drawn) [Compound 680, ((2-(((2S)-1-((2S)-2-((3-((5-(2-(2,6-dioxopiperidin-3-yl)-1-oxoisoindolin-4-yl)pent-4-yn-1-yl)(methyl)amino)-3-oxopropyl)(naphthalen-2-yl)carbamoyl)pyrrolidin-1-yl)-3,3-dimethyl-1-oxobutan-2-yl)carbamoyl)benzo[b]thiophen-5-yl)difluoromethyl)phosphonic acid], for which the 50% degradation concentration (DC50) in the assay on STAT5 (setting [3]) was 100 to 1000 nM; in the assay on STAT5 (setting [4]) it was below 100 nM; in the assay on STAT5 (setting [5]) it was 100 to 1000 nM; on STAT6 (setting [7]), above 10000 nM.
For `CN(CCCC#Cc1cccc2c1CN(C1CCC(=O)NC1=O)C2=O)C(=O)CCN(C(=O)[C@@H]1CCCN1C(=O)[C@@H](NC(=O)c1cc2cc(C(F)(F)P(=O)(O)O)ccc2s1)C(C)(C)C)c1ccc(Br)cc1` (stereo partly drawn) [Compound 665, ((2-(((2S)-1-((2S)-2-((4-bromophenyl)(3-((5-(2-(2,6-dioxopiperidin-3-yl)-1-oxoisoindolin-4-yl)pent-4-yn-1-yl)(methyl)amino)-3-oxopropyl)carbamoyl)pyrrolidin-1-yl)-3,3-dimethyl-1-oxobutan-2-yl)carbamoyl)benzo[b]thiophen-5-yl)difluoromethyl)phosphonic acid], the DC50 in the assay on STAT5 (setting [3]) is 100 to 1000 nM; in the assay on STAT5 (setting [4]), below 100 nM; in the assay with STAT5 (setting [5]) it was 100 to 1000 nM; on STAT6 (setting [2]) it was above 300 nM.
Consider `CC(C)(C)C(=O)OCOP(=O)(O)C(F)(F)c1ccc2sc(C(=O)N[C@H](C(=O)N3C[C@@H](OCCCCCC#Cc4cccc5c4CN(C4CCC(=O)NC4=O)C5=O)C[C@H]3C(=O)N3CCO[C@H](c4ccccc4)C3)C(C)(C)C)cc2c1` (stereo partly drawn) [Compound 652, ((((2-(((2S)-1-((2S,4S)-4-((7-(2-(2,6-dioxopiperidin-3-yl)-1-oxoisoindolin-4-yl)hept-6-yn-1-yl)oxy)-2-((R)-2-phenylmorpholine-4-carbonyl)pyrrolidin-1-yl)-3,3-dimethyl-1-oxobutan-2-yl)carbamoyl)benzo[b]thiophen-5-yl)difluoromethyl)(hydroxy)phosphoryl)oxy)methyl pivalate], for which the DC50 is above 10000 nM with STAT5 (setting [4]) and below 100 nM on STAT6 (setting [7]).
Regarding `CC(C)(C)[C@H](NC(=O)c1cc2cc(C(F)(F)P(=O)(O)O)ccc2s1)C(=O)N1CCC[C@H]1C(=O)N(CCC(=O)NCCCC#Cc1cccc2c1CN(C1CCC(=O)NC1=O)C2=O)c1cccc2sccc12` (stereo partly drawn) [Compound 660, ((2-(((2S)-1-((2S)-2-(benzo[b]thiophen-4-yl(3-((5-(2-(2,6-dioxopiperidin-3-yl)-1-oxoisoindolin-4-yl)pent-4-yn-1-yl)amino)-3-oxopropyl)carbamoyl)pyrrolidin-1-yl)-3,3-dimethyl-1-oxobutan-2-yl)carbamoyl)benzo[b]thiophen-5-yl)difluoromethyl)phosphonic acid], the results for the DC50 with STAT5 (setting [1]), with STAT5 (setting [5]) and on STAT6 (setting [2]) were above 300 nM, 1000 to 10000 nM and above 300 nM, respectively.

(Values after patent US20230295197A1, “STAT5 and STAT6 Degraders and Uses Thereof” (REGENTS OF THE UNIVERSITY OF MICHICAN, priority 2022, published 2023).)
